In PubChem BioAssay (NCI):
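Five compound concentrations were applied to cells in 96-well plates for 48 hours; endpoints were derived by simple linear interpolation of the resulting dose-response curve. TGI marks complete inhibition of growth.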

Experiments:
Assay in all cases: DTP human tumour cell line panel, 48 h
SF-295 CNS = test system: SF-295 CNS
SK-MEL-28 melanoma = test system: SK-MEL-28 melanoma
MDA-N = test system: MDA-N
IGROV1 ovarian = test system: IGROV1 ovarian
BT-549 breast = test system: BT-549 breast
A498 renal = test system: A498 renal
SK-MEL-2 melanoma = test system: SK-MEL-2 melanoma
PC-3 prostate = test system: PC-3 prostate
NCI-H226 lung = test system: NCI-H226 lung
UO-31 renal = test system: UO-31 renal
NCI-H522 lung = test system: NCI-H522 lung
EKVX NSCLC = test system: EKVX NSCLC
SR leukemia = test system: SR leukemia
SNB-75 CNS = test system: SNB-75 CNS
OVCAR-5 ovarian = test system: OVCAR-5 ovarian
UACC-62 melanoma = test system: UACC-62 melanoma
K-562 leukemia = test system: K-562 leukemia
786-0 renal = test system: 786-0 renal
RXF 393 renal = test system: RXF 393 renal
OVCAR-3 ovarian = test system: OVCAR-3 ovarian
M14 melanoma = test system: M14 melanoma
SNB-19 CNS = test system: SNB-19 CNS
LOX IMVI melanoma = test system: LOX IMVI melanoma
SF-268 CNS = test system: SF-268 CNS
SW-620 colon = test system: SW-620 colon
TK-10 renal = test system: TK-10 renal
MALME-3M melanoma = test system: MALME-3M melanoma
NCI-H23 lung = test system: NCI-H23 lung
MOLT-4 leukemia = test system: MOLT-4 leukemia
MDA-MB-231 breast = test system: MDA-MB-231 breast
T-47D breast = test system: T-47D breast
MDA-MB-435 = test system: MDA-MB-435
SN12C renal = test system: SN12C renal
NCI/ADR-RES ovarian = test system: NCI/ADR-RES ovarian
OVCAR-8 ovarian = test system: OVCAR-8 ovarian
ACHN renal = test system: ACHN renal
KM12 colon = test system: KM12 colon
A549 NSCLC = test system: A549 NSCLC
MCF7 breast = test system: MCF7 breast
HCT-15 colon = test system: HCT-15 colon
DU-145 prostate = test system: DU-145 prostate
COLO 205 colon = test system: COLO 205 colon
SK-MEL-5 melanoma = test system: SK-MEL-5 melanoma
HOP-62 NSCLC = test system: HOP-62 NSCLC
CCRF-CEM leukemia = test system: CCRF-CEM leukemia
HS 578T breast = test system: HS 578T breast
HT29 colon = test system: HT29 colon
U251 CNS = test system: U251 CNS
HCC-2998 colon = test system: HCC-2998 colon
SF-539 CNS = test system: SF-539 CNS
OVCAR-4 ovarian = test system: OVCAR-4 ovarian
HL-60(TB) leukemia = test system: HL-60(TB) leukemia
SK-OV-3 ovarian = test system: SK-OV-3 ovarian
UACC-257 melanoma = test system: UACC-257 melanoma
RPMI-8226 leukemia = test system: RPMI-8226 leukemia
NCI-H460 lung = test system: NCI-H460 lung
HCT-116 colon = test system: HCT-116 colon
CAKI-1 renal = test system: CAKI-1 renal

## CC1=NC2(CCCCC2)N(Cl)C(=O)C1SC#N (configuration not stated)
SF-295 CNS
  TGI: 36.1 µM
SK-MEL-28 melanoma
  TGI: 34.9 µM
MDA-N
  TGI: 32.2 µM
IGROV1 ovarian
  TGI: 34.4 µM
BT-549 breast
  TGI: 28.5 µM
A498 renal
  TGI: > 100 µM
SK-MEL-2 melanoma
  TGI: 48.2 µM
PC-3 prostate
  TGI: 32.1 µM
NCI-H226 lung
  TGI: 40.1 µM
UO-31 renal
  TGI: 32.9 µM
NCI-H522 lung
  TGI: 38.8 µM
EKVX NSCLC
  TGI: 31.9 µM
SR leukemia
  TGI: > 100 µM
SNB-75 CNS
  TGI: 44.5 µM
OVCAR-5 ovarian
  TGI: 38.6 µM
UACC-62 melanoma
  TGI: 27.2 µM
K-562 leukemia
  TGI: 41.4 µM
786-0 renal
  TGI: 31.9 µM
RXF 393 renal
  TGI: 32.3 µM
OVCAR-3 ovarian
  TGI: 35.2 µM
M14 melanoma
  TGI: 34.4 µM
SNB-19 CNS
  TGI: 49.9 µM
LOX IMVI melanoma
  TGI: 35.4 µM
SF-268 CNS
  TGI: 33.5 µM
SW-620 colon
  TGI: 62.6 µM
TK-10 renal
  TGI: 35.1 µM
MALME-3M melanoma
  TGI: 41.9 µM
NCI-H23 lung
  TGI: 58.9 µM
MOLT-4 leukemia
  TGI: 23.7 µM
MDA-MB-231 breast
  TGI: 36.5 µM
T-47D breast
  TGI: 62.7 µM
MDA-MB-435
  TGI: 37.7 µM
SN12C renal
  TGI: 36.5 µM
NCI/ADR-RES ovarian
  TGI: 56.2 µM
OVCAR-8 ovarian
  TGI: 32.7 µM
ACHN renal
  TGI: 31.6 µM
KM12 colon
  TGI: 42.6 µM
A549 NSCLC
  TGI: 24.8 µM
MCF7 breast
  TGI: 48.9 µM
HCT-15 colon
  TGI: 66.6 µM
DU-145 prostate
  TGI: > 100 µM
COLO 205 colon
  TGI: > 100 µM
SK-MEL-5 melanoma
  TGI: 39.8 µM
HOP-62 NSCLC
  TGI: 47.8 µM
CCRF-CEM leukemia
  TGI: 12.8 µM
HS 578T breast
  TGI: > 100 µM
HT29 colon
  TGI: 46.4 µM
U251 CNS
  TGI: 37.4 µM
HCC-2998 colon
  TGI: 42 µM
SF-539 CNS
  TGI: 35.9 µM
OVCAR-4 ovarian
  TGI: 46.2 µM
HL-60(TB) leukemia
  TGI: > 100 µM

## CCOC(=O)CN=C1Nc2ccccc2C(=O)N2CSCC12 (configuration not stated)
SF-295 CNS
  TGI: > 100 µM
SK-MEL-28 melanoma
  TGI: > 100 µM
MDA-N
  TGI: > 100 µM
IGROV1 ovarian
  TGI: > 100 µM
BT-549 breast
  TGI: > 100 µM
A498 renal
  TGI: > 100 µM
SK-MEL-2 melanoma
  TGI: > 100 µM
PC-3 prostate
  TGI: > 100 µM
SK-OV-3 ovarian
  TGI: > 100 µM
NCI-H226 lung
  TGI: > 100 µM
UO-31 renal
  TGI: > 100 µM
NCI-H522 lung
  TGI: > 100 µM
EKVX NSCLC
  TGI: > 100 µM
SR leukemia
  TGI: > 100 µM
SNB-75 CNS
  TGI: > 100 µM
OVCAR-5 ovarian
  TGI: > 100 µM
UACC-62 melanoma
  TGI: > 100 µM
K-562 leukemia
  TGI: > 100 µM
786-0 renal
  TGI: > 100 µM
RXF 393 renal
  TGI: > 100 µM
OVCAR-3 ovarian
  TGI: > 100 µM
M14 melanoma
  TGI: > 100 µM
SNB-19 CNS
  TGI: > 100 µM
LOX IMVI melanoma
  TGI: > 100 µM
SF-268 CNS
  TGI: > 100 µM
SW-620 colon
  TGI: > 100 µM
TK-10 renal
  TGI: > 100 µM
MALME-3M melanoma
  TGI: > 100 µM
MOLT-4 leukemia
  TGI: > 100 µM
MDA-MB-231 breast
  TGI: > 100 µM
UACC-257 melanoma
  TGI: > 100 µM
T-47D breast
  TGI: > 100 µM
MDA-MB-435
  TGI: > 100 µM
SN12C renal
  TGI: > 100 µM
RPMI-8226 leukemia
  TGI: > 100 µM
NCI/ADR-RES ovarian
  TGI: > 100 µM
OVCAR-8 ovarian
  TGI: > 100 µM
ACHN renal
  TGI: > 100 µM
NCI-H460 lung
  TGI: > 100 µM
KM12 colon
  TGI: > 100 µM
A549 NSCLC
  TGI: > 100 µM
MCF7 breast
  TGI: > 100 µM
HCT-15 colon
  TGI: > 100 µM
DU-145 prostate
  TGI: > 100 µM
COLO 205 colon
  TGI: > 100 µM
SK-MEL-5 melanoma
  TGI: > 100 µM
HOP-62 NSCLC
  TGI: > 100 µM
CCRF-CEM leukemia
  TGI: > 100 µM
HS 578T breast
  TGI: > 100 µM
HT29 colon
  TGI: > 100 µM
U251 CNS
  TGI: > 100 µM
HCT-116 colon
  TGI: > 100 µM
HCC-2998 colon
  TGI: > 100 µM
OVCAR-4 ovarian
  TGI: > 100 µM
CAKI-1 renal
  TGI: > 100 µM
